Data as given in patent US6399610B1, “Transmucosal formulations of levosimendan” (Orion Corporation, priority 1997, dated 2002).

Test: Bioavailability of levosimendan following buccal and intravenous administration in dogs (plasma concentration)
Format: in vivo, beagle dogs
Conditions: for concentration at 10 min / concentration at 20 min / concentration at 40 min / concentration at 60 min / concentration at 90 min / concentration at 120 min: beagle, dog, plasma, 0.02 mg/kg; for concentration at 10 min / concentration at 20 min / concentration at 40 min / concentration at 60 min / concentration at 90 min / concentration at 120 min / Levosimendan concentration: dog plasma; for Levosimendan concentration: 0 min
Protocol: Bioavailability of levosimendan was studied in dogs following buccal and intravenous administration of 0.02 mg/kg of the compound. As experimental animals, three beagle dogs were used. At the time of dosing all animals weighed approximately 10 kg. The dogs were given levosimendan as an intravenous injection or buccal spray at one week intervals. Appropriate concentration (2 mg/ml in 96% ethanol) of the compound was prepared in 10 ml amber glass containers sealed with spray nozzles (50 μl dose, Pfeiffer). The 0.02 mg/kg buccal dose was thus obtained by spraying 2 consecutive 50 μl doses to the buccal cavity of the animals (the dosing volume being thus 0.1 ml/10 kg). The iv dose (0.1 ml/10 kg) was taken from the same bottles.
5 ml of blood was collected from the cephalic vein at the following times after administration: 0, 10, 20, 40, min, 1, 1.5 and 2 hours. Plasma was separated and stored frozen in −20 ° C. until analyzed.
Levosimendan in dog plasma was determined by a non-enantioselective method, in which an automated sample preparation technique combined with high performance liquid chromatography was used. The plasma clean-up was performed by on-line dialysis and the, dialysate was retained on a trace enrichment column. The analyte was then-separated on an analytical column and detected with a UV-detector. The limit of quantitation was 5 ng/ml and the quantitation range 5-500 ng/ml.
The apparatus comprised a Gilson ASTED (Automated Sequential Trace Enrichment System) system (Gilson Medical Electronics, Villiers-le-Bel, France). The dialysis cell was fitted with a Cuprophan cellulose membrane with a molecular cut-off of 15 kDa and the trace enrichment column was a Hypersil ODS (5.8×4.6 mm i.d., 10 μm). The chromatographic system consisted of an LKB Model 2150 pump (Bromma, Sweden) and a Lichrosorb RP-18 (250×4 mm i.d., 10 μm) column (Merck, Darmstadt, Germany). The detector was a Spectra 100 UV-VIS (Spectra-Physics, San Jose, Calif., USA). The wavelength was 380 nm. The mobile phase consisted of a 32 mM monosodium dihydrogen phosphate buffer, methanol, and tetrahydrofuran (45:65:1, v/v/v, pH 3.5). The mobile phase flow rate was 1.0 ml/min.

[1] = other: buccal spray, buccal spray 0.02 mg/kg, Dog 1
[2] = other: buccal spray, buccal spray 0.02 mg/kg, Dog 2
[3] = other: buccal spray, buccal spray 0.02 mg/kg, Dog 3

- concentration at 10 min (iv, iv 0.02 mg/kg, Dog 1): 128 ng/mL
- concentration at 10 min (iv, iv 0.02 mg/kg, Dog 2): 103 ng/mL
- concentration at 10 min (iv, iv 0.02 mg/kg, Dog 3): 100 ng/mL
- concentration at 20 min (iv, iv 0.02 mg/kg, Dog 1): 105 ng/mL
- concentration at 20 min (iv, iv 0.02 mg/kg, Dog 2): 71 ng/mL
- concentration at 20 min (iv, iv 0.02 mg/kg, Dog 3): 82 ng/mL
- concentration at 40 min (iv, iv 0.02 mg/kg, Dog 1): 74 ng/mL
- concentration at 40 min (iv, iv 0.02 mg/kg, Dog 2): 46 ng/mL
- concentration at 40 min (iv, iv 0.02 mg/kg, Dog 3): 58 ng/mL
- concentration at 60 min (iv, iv 0.02 mg/kg, Dog 1): 58 ng/mL
- concentration at 60 min (iv, iv 0.02 mg/kg, Dog 2): 36 ng/mL
- concentration at 60 min (iv, iv 0.02 mg/kg, Dog 3): 46 ng/mL
- concentration at 90 min (iv, iv 0.02 mg/kg, Dog 1): 39 ng/mL
- concentration at 90 min (iv, iv 0.02 mg/kg, Dog 2): 24 ng/mL
- concentration at 90 min (iv, iv 0.02 mg/kg, Dog 3): 33 ng/mL
- concentration at 120 min (iv, iv 0.02 mg/kg, Dog 1): 28 ng/mL
- concentration at 120 min (iv, iv 0.02 mg/kg, Dog 2): 15 ng/mL
- concentration at 120 min (iv, iv 0.02 mg/kg, Dog 3): 25 ng/mL
- concentration at 10 min [1]: 10 ng/mL
- concentration at 10 min [2]: 17 ng/mL
- concentration at 10 min [3]: 7.6 ng/mL
- concentration at 20 min [1]: 24 ng/mL
- concentration at 20 min [2]: 24 ng/mL
- concentration at 20 min [3]: 9.4 ng/mL
- concentration at 40 min [1]: 32 ng/mL
- concentration at 40 min [2]: 25 ng/mL
- concentration at 40 min [3]: 25 ng/mL
- concentration at 60 min [1]: 26 ng/mL
- concentration at 60 min [2]: 22 ng/mL
- concentration at 60 min [3]: 24 ng/mL
- concentration at 90 min [1]: 18 ng/mL
- concentration at 90 min [2]: 17 ng/mL
- concentration at 90 min [3]: 22 ng/mL
- concentration at 120 min [1]: 13 ng/mL
- concentration at 120 min [2]: 12 ng/mL
- concentration at 120 min [3]: 16 ng/mL
- Levosimendan concentration (buccal spray 0.02 mg/kg, Dog 1): < (< means below quantitation range)
- Levosimendan concentration (buccal spray 0.02 mg/kg, Dog 2): < (< means below quantitation range)
- Levosimendan concentration (buccal spray 0.02 mg/kg, Dog 3): < (< means below quantitation range)
- Levosimendan concentration (iv 0.02 mg/kg, Dog 1): < (< means below quantitation range)
- Levosimendan concentration (iv 0.02 mg/kg, Dog 2): < (< means below quantitation range)
- Levosimendan concentration (iv 0.02 mg/kg, Dog 3): < (< means below quantitation range)
- Absorption into blood from the buccal spray (dogs, buccal spray 0.02 mg/kg): rapidly absorbed into blood
- Serum levels of levosimendan (dogs, buccal spray 0.02 mg/kg): steady serum levels
SMILES: CC1CC(=O)NN=C1c1ccc(NN=C(C#N)C#N)cc1 (single isomer, unassigned; (-)) [Levosimendan, (-)-enantiomer of [[4-(1,4,5,6-tetrahydro-4-methyl-6-oxo-3-pyridazinyl)phenyl]hydrazono]propanedinitrile]
